# Results as given in PMC11407372, “New imidazolidindionedioximes and their Pt(II) complexes: synthesis and investigation of their antitumoral activities on breast cancer cells” (Turkish Journal of Chemistry, 2024).
# Tested on: CCD-1079Sk cells
# Assay: Apoptosis assay (Annexin V/7-AAD, flow cytometry)
# Format: cell-based
# Details: sample at IC50 concentration, 24 h
# Protocol: (§1) FITC-Annexin V/7-AAD kit was used for the apoptosis experiment. Briefly, the cells were seeded into 12-well plates at 2 × 10^5 cells/well in 1 mL volume and cells were inoculated overnight. After that, 500 μL of fresh medium and 500 μL of sample at the concentration of IC50 were added to the wells. The cells were incubated with the samples for 24 h, then detached using 0.5 mL of trypsin solution, cells were collected and centrifuged at 3000 g for 3 min. The cells were washed with 200 μL of cell staining buffer, then dispersed in 100 μL of binding buffer. Following this, 5 μL of FITC-Annexin V and 10 μL of 7-AAD were added, and the mixture was incubated in the dark for 30 min. The samples were then analyzed by flow cytometry.
# (§2) The Annexin V conjugated Alexa Fluor 488/7-AAD binding assay is based on the difference in fluorescence intensity between apoptotic and nonapoptotic cells stained with the fluorescent Annexin V/7-AAD, which is measured by flow cytometry. Therefore, an apoptosis assay was performed to determine the rate of live, apoptotic, and necrotic cells (Table 2, Figure S43). It is seen that compounds induce early and late apoptosis in MDA-MB-231 cells.
SMILES,"cell % Apoptotic, CCD-1079Sk [%]","cell % Necrotic, CCD-1079Sk [%]"
O[N+]1=C2C(=[N+](O)[Pt-2]1([Cl])[Cl])N(c1ccccc1)CN2c1ccccc1 [L 1a Pt-m],2.65 ± 0.11,–
"CC(O)(CS(=O)(=O)c1ccc(F)cc1)C(=O)Nc1ccc(C#N)c(C(F)(F)F)c1 (stereo not drawn) [Bical, bicalutamide, reference compound]",5.10 ± 0.21,–
"N.N.[Cl][Pt][Cl] [CisPt, cis-diamminedichloroplatinum(II), reference compound]",5.00 ± 0.07,3.90 ± 0.14
[O-]N=C1C(=NO)N(c2ccc(F)cc2)CN1c1ccc(F)cc1.[O-]N=C1C(=NO)N(c2ccc(F)cc2)CN1c1ccc(F)cc1.[Pt+2] [L 1b Pt-b],1.90 ± 0.07,1.25 ± 0.07

# Tested on: MDA-MB-231 cells
# Assay: Apoptosis assay (Annexin V/7-AAD, flow cytometry)
# Format: cell-based, human
# Details: sample at IC50 concentration, 24 h
# Protocol: as §1, §2
SMILES,"cell % Apoptotic, MDA-MB-231 [%]","cell % Necrotic, MDA-MB-231 [%]"
O[N+]1=C2C(=[N+](O)[Pt-2]1([Cl])[Cl])N(c1ccccc1)CN2c1ccccc1 [L 1a Pt-m],9.35 ± 0.46,0.65 ± 0.21
"CC(O)(CS(=O)(=O)c1ccc(F)cc1)C(=O)Nc1ccc(C#N)c(C(F)(F)F)c1 (stereo not drawn) [Bical, bicalutamide, reference compound]",6.70 ± 0.28,1.95 ± 0.21
"N.N.[Cl][Pt][Cl] [CisPt, cis-diamminedichloroplatinum(II), reference compound]",14.95 ± 0.74,1.55 ± 0.21
[O-]N=C1C(=NO)N(c2ccc(F)cc2)CN1c1ccc(F)cc1.[O-]N=C1C(=NO)N(c2ccc(F)cc2)CN1c1ccc(F)cc1.[Pt+2] [L 1b Pt-b],7.45 ± 0.39,2.65 ± 0.07

# Tested on: MCF-7 cells
# Assay: Apoptosis assay (Annexin V/7-AAD, flow cytometry)
# Format: cell-based, human
# Details: sample at IC50 concentration, 24 h
# Protocol: as §1
# as §2, with “It is seen that compounds induce early and late apoptosis in MDA-MB-231 cells.” left out
SMILES,apoptosis induction in MCF-7 cells,"cell % Necrotic, MCF-7 [%]","cell % Apoptotic, MCF-7 [%]"
O[N+]1=C2C(=[N+](O)[Pt-2]1([Cl])[Cl])N(c1ccccc1)CN2c1ccccc1 [L 1a Pt-m],induces more cancerous cells to undergo apoptosis,5.45 ± 1.06,–
"CC(O)(CS(=O)(=O)c1ccc(F)cc1)C(=O)Nc1ccc(C#N)c(C(F)(F)F)c1 (stereo not drawn) [Bical, bicalutamide, reference compound]",–,6.35 ± 1.20,2.05 ± 0.03
"N.N.[Cl][Pt][Cl] [CisPt, cis-diamminedichloroplatinum(II), reference compound]",–,1.10 ± 0.14,3.45 ± 0.03
[O-]N=C1C(=NO)N(c2ccc(F)cc2)CN1c1ccc(F)cc1.[O-]N=C1C(=NO)N(c2ccc(F)cc2)CN1c1ccc(F)cc1.[Pt+2] [L 1b Pt-b],–,2.20 ± 0.14,2.95 ± 0.11

# Tested on: MDA-MB-231 cells
# Assay: Cell cycle assay (PI, flow cytometry)
# Format: cell-based, human
# Details: sample at IC50 concentration, 24 h; 24.5% in control cells
# Protocol: The cell cycle kit was used for the cell cycle experiment. Briefly, the cells were seeded into 12-well plates in a volume of 1 mL at 2 × 10^5 cells/well, and cells were inoculated overnight. After that, 500 μL of fresh medium and 500 μL of the sample at the concentration of IC50 were added to the wells. The cells were incubated with the samples for 24 h, then detached using 0.5 mL of trypsin solution, cells were collected and centrifuged at 3000 g for 3 min. The collecting cells were washed with 1 mL of PBS and fixed with 1 mL of 70% cold ethanol at −20 °C for 24 h. After that, 200 μL of staining solution containing propidium iodide (PI) and RNAse reagents were added to the cells, and the cells were incubated for 30 min in the dark. Cell cycle profiles of synthesized compounds were analyzed using a flow cytometer (BD Accuri C6). The data were analyzed through BD software. Each assay was investigated in triplicate.
row,SMILES,MDA-MB-231 cell population in the G1-phase [%]
1,O[N+]1=C2C(=[N+](O)[Pt-2]1([Cl])[Cl])N(c1ccccc1)CN2c1ccccc1 [L 1a Pt-m],36.1

# Same assay, conditions: summary in conclusion; MDA-MB-231 and/or MCF-7
row,SMILES,effect on cell cycle
1,O[N+]1=C2C(=[N+](O)[Pt-2]1([Cl])[Cl])N(c1ccccc1)CN2c1ccccc1 [L 1a Pt-m],regulate the cell cycle and increase the G1 population

# Tested on: CCD-1079Sk healthy fibroblast cell line
# Assay: MTT cytotoxicity assay
# Format: cell-based
# Details: 24 h, mean ± standard deviation
# Protocol: (§3) CCD-1079Sk healthy fibroblast cell line, MCF-7, and MDA-MB-231 breast cancer cell lines were used in this study. The cells were grown in DMEM/F12 medium containing 10% fetal bovine serum (FBS) and 100 U/mL penicillin/streptomycin at 37 °C in a humidified incubator with 5% CO2. After bringing 80% confluency, the cells were detached using a trypsin solution. For further experiments, cells were resuspended in the growth medium after collection and centrifugation.
# (§4) To determine cytotoxicity, the MTT assay was performed using L1aPt-m, L1bPt-m, L1cPt-m, L1aPt-b, L1bPt-b, L1cPt-b, cisPt, and bicalutamide (bical) samples at 10 different concentrations ranging from 100 μM to 0.19 μM (100, 50, 25, 12.5, 6.25, 3.12, 1.56, 0.78, 0.39, and 0.19 μM). The samples were dissolved in DMSO and diluted with the medium. Initial DMSO concentration was kept below 1% to avoid toxicity from the solvent. Briefly, the cells were seeded to 96-well plates at 5 × 10^3 cells/well in a volume of 200 μL, and cells were inoculated overnight. After that, old medium was removed, 100 μL of fresh medium and 100 μL of sample were added to the wells. The cells were incubated with the samples for 24 h. At the end of incubation with the samples, 30 μL of 3-(4,5-dimethylthiazol-2-yl)-2,5-diphenyltetrazolium bromide (MTT) solution was added. After 3 h the medium was removed and 100 μL of DMSO was added to dissolve the formazan crystals. Then the absorbance values were recorded at 540 nm using an ELISA microplate reader (Synergy H1, BioTek). All the experiments were carried out in triplicates, and the results were presented as a mean ± standard deviation. The IC50 values of samples were calculated using a percentage of relative cell viability via GraphPad Prism 5. The viability percentages of cells were calculated using the following formula:
# (§5) %relative cell viability=(Abssample/Abscontrol)×100.
row,SMILES,IC50 [µM]
1,O[N+]1=C2C(=[N+](O)[Pt-2]1([Cl])[Cl])N(c1ccccc1)CN2c1ccccc1 [L 1a Pt-m],59.5 ± 5.34
2,"N.N.[Cl][Pt][Cl] [CisPt, cis-diamminedichloroplatinum(II), reference compound]",27.9 ± 7.24
3,[O-]N=C1C(=NO)N(c2ccc(F)cc2)CN1c1ccc(F)cc1.[O-]N=C1C(=NO)N(c2ccc(F)cc2)CN1c1ccc(F)cc1.[Pt+2] [L 1b Pt-b],67.9 ± 5.11

# Same assay, conditions: Fibroblast, 24 h, mean ± standard deviation
row,SMILES,IC50 [µM]
1,"CC(O)(CS(=O)(=O)c1ccc(F)cc1)C(=O)Nc1ccc(C#N)c(C(F)(F)F)c1 (stereo not drawn) [Bical, bicalutamide, reference compound]",9.16 ± 3.18

# Tested on: MDA-MB-231 human breast cancer cell line
# Assay: MTT cytotoxicity assay
# Format: cell-based
# Details: 24 h, mean ± standard deviation
# Protocol: as §3, §4, §5
row,SMILES,IC50 [µM]
1,O[N+]1=C2C(=[N+](O)[Pt-2]1([Cl])[Cl])N(c1ccccc1)CN2c1ccccc1 [L 1a Pt-m],9.63 ± 7.71
2,"N.N.[Cl][Pt][Cl] [CisPt, cis-diamminedichloroplatinum(II), reference compound]",9.16 ± 7.74
3,[O-]N=C1C(=NO)N(c2ccc(F)cc2)CN1c1ccc(F)cc1.[O-]N=C1C(=NO)N(c2ccc(F)cc2)CN1c1ccc(F)cc1.[Pt+2] [L 1b Pt-b],9.73 ± 7.28

# Same assay, conditions: Homo sapiens, MDA-MB-231, 24 h, mean ± standard deviation
row,SMILES,IC50 [µM]
1,"CC(O)(CS(=O)(=O)c1ccc(F)cc1)C(=O)Nc1ccc(C#N)c(C(F)(F)F)c1 (stereo not drawn) [Bical, bicalutamide, reference compound]",8.34 ± 6.39

# Tested on: MCF-7 human breast cancer cell line
# Assay: MTT cytotoxicity assay
# Format: cell-based
# Details: 24 h, mean ± standard deviation
# Protocol: as §3, §4, §5
row,SMILES,IC50 [µM]
1,O[N+]1=C2C(=[N+](O)[Pt-2]1([Cl])[Cl])N(c1ccccc1)CN2c1ccccc1 [L 1a Pt-m],8.97 ± 5.28
2,"N.N.[Cl][Pt][Cl] [CisPt, cis-diamminedichloroplatinum(II), reference compound]",3.98 ± 1.44
3,[O-]N=C1C(=NO)N(c2ccc(F)cc2)CN1c1ccc(F)cc1.[O-]N=C1C(=NO)N(c2ccc(F)cc2)CN1c1ccc(F)cc1.[Pt+2] [L 1b Pt-b],9.57 ± 5.41

# Same assay, conditions: Homo sapiens, MCF7, 24 h, mean ± standard deviation
row,SMILES,IC50 [µM]
1,"CC(O)(CS(=O)(=O)c1ccc(F)cc1)C(=O)Nc1ccc(C#N)c(C(F)(F)F)c1 (stereo not drawn) [Bical, bicalutamide, reference compound]",3.78 ± 1.85
